Entries after “also recorded” stand apart in the source; their conditions may differ.
What was measured:
bFGF [1] = biological target: T1, bFGF (Homo sapiens, UniProt P09038); assay: competition with 125I-heparin binding to bFGF; details: for binding to bFGF/FGF (in words): competition with 125I-heparin; for IC50: 4 nM FGF, read-out: IC50 (50% competition for 125I-heparin binding to bFGF) (converted)
T1 construct: purchased Scios Nova
Method: FIG. 2A: Binding of oligosaccharides to bFGF as determined by competition with ^125 I-heparin (30).
(§1) The ability of these small oligosaccharides to compete with the binding on ^125 I-heparin to FGF was also assayed. Heparin iodination was carried out by previously published procedure (30). Heparin binding to FGF was determined by incubating 4 nM FGF with ^125 I-heparin and competitor polysaccharide. Complexes were immunoprecipitated with 1:250 dilutions of monoclonal antibody DG2 (DuPont/Merck) (for bFGF) or a polyclonal antibody (for aFGF), and protein A SEPHAROSE (Sigma Chemical Co.). Washing and quantitation was carried out by procedures previously published for soluble receptor-binding assays (3).
(§2) 12. Heparin iodination was as in (30). Heparin binding to FGF was determined by incubating 4 nM FGF with ^125 I-heparin and competitor polysaccharide. Complexes were immunopredpitated with 1:250 dilutions of monoclonal antibody DG2 (for bFGF) or a polydonal antibody (for aFGF), and protein A sepharose (Sigma). Washing and quantitation was as previously described for soluble receptor binding assays (3).

[2] = system: FGFR1-expressing BaF3 cells; assay: bFGF mitogenic activity, 3H-thymidine incorporation into FGFR1-expressing BaF3 cells; assay type: cell-based; details: for mitogenic activity with bFGF (in words): FGFR1-expressing BaF3 cells; for Mitogenic activity: relative concentration (wt/vol.) required to incorporate 2 × 10^4 cpm 3H-thymidine into F32 cell DNA: relative to heparin (1.0), ± standard deviation; for mitogenic activity with bFGF (in words) / Mitogenic activity: relative concentration (wt/vol.) required to incorporate 2 × 10^4 cpm 3H-thymidine into F32 cell DNA: bFGF; for fold more active than SOS: FGFR1-expressing BaF3 cell growth with bFGF
Excerpt: This cell line was used to assay synthetic heparin/HS molecules as potential activators or inhibitors of heparin/HS-dependent mitogenesis (3).

bFGF-FRAP binding = assay: binding of 125I-bFGF to soluble receptor FRAP in presence of oligosaccharide; details: oligosaccharides 2 μg/ml or increasing concentrations
Method: FIG. 2B: Binding of ^125 I-bFGF to FRAP (3), a soluble receptor, in the presence of the indicated oligosaccharide: *, no heparin added; heparin, 50 ng/ml; the remaining oligosaccharides (Di-1 to SOS) were added at a concentration of 2 μg/ml. FGFs were labeled by the Chloramine T method as previously described (31).
(§3) FIG. 2C: Acidic FGF binding to FRAP; FIG. 2D:, basic FGF binding to FRAP. ^125 I-FGFs were incubated with FRAP in the presence of increasing concentrations of heparin or Tri-3; Binding assays were performed as previously described (3).
(§4) The FGFR1-expressing BaF3 cell line was used to assay synthetic heparin/HS molecules as potential activators or inhibitors of heparin/HS-dependent mitogenesis by an assay procedure published previously (3). Such cell lines, which express FGRF1, require heparin/HS and FGF for growth (3). […]
Binding of bFGF to a soluble FGFR-alkaline phosphatase fusion protein (FRAP) or to a cell-surface FGFR is enhanced by heparin/HS or by heparin-derived oligosaccharides (8 to 12 sugar residues) (3,4). The ability of heparin/HS-derived di- and tri-saccharides to enhance FGF-FRAP binding in vitro was measured (3).

aFGF = assay: competition with 125I-heparin binding to aFGF
Method: as §1, §2

[3] = system: FGFR1-expressing BaF3 cells; assay: aFGF mitogenic activity, 3H-thymidine incorporation into FGFR1-expressing BaF3 cells; assay type: cell-based
Excerpt: Activation of bFGF mitogenic activity as measured by ^3 H-thymidine incorporation into FGFR1-expressing BaF3 cells treated with 150 pM bFGF and increasing concentrations of the indicated oligosaccharides is shown. FIG. 1B.
as §4
However, their potency relative to that of heparin is less than that observed with bFGF (FIG. 1B).

FGF receptors = assay: dimerization of FGF receptors on BaF3-FGFR1 cells by crosslinking; assay type: cell-based; details: BaF3-FGFR1 cells with FGF-2
Method: Binding media (DMEM/0.1% BSA) was supplemented with the indicated concentration of heparin or Tri-3.(*) 200 ng/ml unlabeled FGF-2 added to binding media; Cells were washed once with the same media used for binding, and once with PBS. Crosslinking was as described previously (27).
Crosslinked receptors were electrophoresed on a 5% SDS polyacrylamide gel under reducing condition, and visualized by autoradiography. The lower band corresponds to receptor monomers crosslinked to FGF-2. The upper band corresponds to receptor dimers crosslinked to each other and to FGF-2. Molecular weights (kD) are shown at the right.
Binding media (DMEM/0.1% BSA) was supplemented with the indicated concentration of heparin or Tri-3.(*) 200 ng/ml unlabeled FGF-2 added to binding media; Cells were washed once with the same media used for binding, and once with PBS. Crosslinking was as described previously
Crosslinked receptors were electrophoresed on a 5% SDS polyacrylamide gel under reducing condition, and visualized by autoradiography. The lower band corresponds to receptor monomers crosslinked to FGF-2. The upper band corresponds to receptor dimers crosslinked to each other and to FGF-2.

aFGF binding to FRAP = assay: binding of 125I-aFGF to soluble receptor FRAP in presence of oligosaccharide; details: increasing concentrations
Method: as §3, §4

bFGF [4] = biological target: T1, bFGF; assay: bFGF dimerization by crosslinking and electrophoresis; assay type: biochemical; details: for induction of FGF dimers (in words): crosslinking
Method: 670 nM bFGF and 3×10^5 cpm ^125 I-bFGF were incubated with the indicated concentration of (μg/ml) Tri-3 or HS-16. Crosslinking and electrophoresis were performed as previously described (3). Dimer (45 kD) band intensities were quantified by scanning densitometry and plotted above each lane. Molecular weight markers (kD) are shown at the right.

T1 sequence (P09038 134-288): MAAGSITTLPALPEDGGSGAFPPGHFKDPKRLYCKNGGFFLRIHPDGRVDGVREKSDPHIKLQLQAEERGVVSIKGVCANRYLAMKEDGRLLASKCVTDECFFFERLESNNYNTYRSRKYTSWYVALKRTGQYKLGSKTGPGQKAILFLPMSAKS

Question: With `CO[C@@H]1O[C@H](C(=O)O)[C@@H](O[C@H]2O[C@H](CO)[C@@H](O[C@@H]3O[C@@H](C(=O)O)[C@@H](O)[C@H](O)[C@H]3O)[C@H](O)[C@H]2NS(=O)(=O)O)[C@H](O)[C@H]1O` [Tri-2, α-L-IdoA-(1→4)-α-D-GlcNSO3 -(1→4)-β-D-GlcA-1→OMe] as the compound, how does the “binding to bFGF/FGF (in words)” value (bFGF [1]) read?
Answer: Its value is “affinity less than that of SOS”.

Question: What about the “mitogenic activity with bFGF (in words)” value [2] of the same compound?
Answer: Its value is “intermediate mitogenic activity; also recorded: lack of activity”.

Question: And the “Mitogenic activity: relative concentration (wt/vol.) required to incorporate 2 × 10^4 cpm 3H-thymidine into F32 cell DNA” value [2]?
Answer: The value was 470.6 ± 25.6.

Question: `CO[C@@H]1O[C@H](C(=O)O)[C@@H](O[C@H]2O[C@H](CO)[C@@H](O)[C@H](O)[C@H]2NC(C)=O)[C@H](O)[C@H]1O` [Di-5, D-GlcNAc-(1→4)-β-D-GlcA-1→OMe] was tested. Which “mitogenic activity with bFGF (in words)” value [2] did it give?
Answer: Its value is “intermediate mitogenic activity”.

Question: What about the “Mitogenic activity: relative concentration (wt/vol.) required to incorporate 2 × 10^4 cpm 3H-thymidine into F32 cell DNA” value [2] of the same compound?
Answer: Its value is 463.6.

Question: For `CO[C@@H]1O[C@H](C(=O)O)[C@@H](O[C@H]2O[C@H](CO)[C@@H](O[C@@H]3O[C@H](C(=O)O)[C@@H](O)[C@H](O)[C@H]3O)[C@H](O)[C@H]2NC(C)=O)[C@H](O)[C@H]1O` [Tri-1, β-D-GlcA-(1→4)-α-D-GlcNAc-(1→4)-β-D-GlcA-1→OMe], which “enhancement of bFGF-FRAP binding (in words)” value (bFGF-FRAP binding) is on record?
Answer: The value was “inability of Tri-1 to enhance FGF-FRAP binding”.

Question: What about the “binding to aFGF (in words)” value (aFGF) of the same compound?
Answer: Its value is “bind”.

Question: And the IC50 (bFGF [1])?
Answer: Its IC50 is 19.9 µM.

Question: And the “binding to bFGF/FGF (in words)” value (bFGF [1])?
Answer: The value was “bind and affinity higher than that of SOS”.

Question: What about the “proliferation of FGFR1-expressing BaF3 cells in the presence of aFGF (in words)” value [3] of the same compound?
Answer: The value was “stimulate the proliferation”.

Question: What about the “mitogenic activity with bFGF (in words)” value [2] of the same compound?
Answer: Its value is “active at concentrations comparable to that of heparin; also recorded: higher than expected mitogenic activity”.

Question: What about the “Mitogenic activity: relative concentration (wt/vol.) required to incorporate 2 × 10^4 cpm 3H-thymidine into F32 cell DNA” value [2] of the same compound?
Answer: The value was 1.2 ± 0.2.

Question: What does the source list for `CO[C@@H]1O[C@H](C(=O)O)[C@@H](O[C@H]2O[C@H](CO)[C@@H](O[C@@H]3O[C@@H](C(=O)O)[C@@H](O)[C@H](O)[C@H]3O)[C@H](O)[C@H]2NC(C)=O)[C@H](O)[C@H]1O` [Tri-3, α-L-IdoA-(1→4)-α-D-GlcNAc-(1→4)-β-D-GlcA-1→OMe]?
Answer: dimerization of FGF receptors (in words) (FGF receptors): dimerization of FGF receptors induced; enhancement of bFGF-FRAP binding (in words) (bFGF-FRAP binding): enhance bFGF-FRAP binding; also recorded: increases in a dose-dependent manner; also recorded: reproducibly exceeds that with heparin; binding to aFGF (in words) (aFGF): bind; aFGF binding to FRAP (in words) (aFGF binding to FRAP): increases in a dose-dependent manner; IC50 (bFGF [1]): 9.87 µM; binding to bFGF/FGF (in words) (bFGF [1]): bind and affinity higher than that of SOS; proliferation of FGFR1-expressing BaF3 cells in the presence of aFGF (in words) [3]: stimulate the proliferation; optimal concentration for dimerization activity (bFGF [4]; 670 nM bFGF): 35 µg/mL; induction of FGF dimers (in words) (bFGF [4]): induce FGF dimers as well as higher order oligomers; mitogenic activity with bFGF (in words) [2]: active at concentrations comparable to that of heparin; also recorded: higher than expected mitogenic activity; also recorded: the most active compound tested; Mitogenic activity: relative concentration (wt/vol.) required to incorporate 2 × 10^4 cpm 3H-thymidine into F32 cell DNA [2]: 3.2

Question: With `CO[C@H]1O[C@H](CO)[C@@H](O[C@@H]2O[C@@H](C(=O)O)[C@@H](O)[C@H](O)[C@H]2O)[C@H](O)[C@H]1NC(C)=O` [Di-1, α-L-IdoA-(1→4)-α-D-GlcNAc-1→OMe] as the compound, how does the “mitogenic activity with bFGF (in words)” value [2] read?
Answer: The value was “no activity”.

Question: What does the source list for `CO[C@H]1O[C@H](CO)[C@@H](O[C@@H]2O[C@H](C(=O)O)[C@@H](O)[C@H](O)[C@H]2O)[C@H](O)[C@H]1NS(=O)(=O)O` [Di-4, β-D-GlcA-(1→4)-α-D-GlcNSO3 -1→OMe]?
Answer: enhancement of bFGF-FRAP binding (in words) (bFGF-FRAP binding): enhance bFGF-FRAP binding; binding to aFGF (in words) (aFGF): bind; binding to bFGF/FGF (in words) (bFGF [1]): bind; fold more active than SOS [2]: 55 fold; mitogenic activity with bFGF (in words) [2]: intermediate mitogenic activity; mitogenic activity with bFGF (in words) ([2]; listed as D-4): the most active of the disaccharides; Mitogenic activity: relative concentration (wt/vol.) required to incorporate 2 × 10^4 cpm 3H-thymidine into F32 cell DNA [2]: 24.7

Question: How did the “enhancement of bFGF-FRAP binding (in words)” value (bFGF-FRAP binding) turn out when `CO[C@H]1O[C@H](CO)[C@@H](O[C@@H]2O[C@H](C(=O)O)[C@@H](O)[C@H](O)[C@H]2O)[C@H](O)[C@H]1NC(C)=O` [Di-3, β-D-GlcA-(1→4)-α-D-GlcNAc-1→OMe] was run?
Answer: Its value is “enhance bFGF-FRAP binding”.

Question: What about the “binding to aFGF (in words)” value (aFGF) of the same compound?
Answer: The value was “bind”.

Question: And the “binding to bFGF/FGF (in words)” value (bFGF [1])?
Answer: The value was “bind”.

Question: What about the “induction of FGF dimers (in words)” value (bFGF [4]) of the same compound?
Answer: Its value is “induce FGF dimers as well as higher order oligomers”.

Question: What about the “fold more active than SOS” value [2] of the same compound?
Answer: The value was 55 fold.

Question: What about the “mitogenic activity with bFGF (in words)” value [2] of the same compound?
Answer: Its value is “intermediate mitogenic activity”.

Question: What about the “mitogenic activity with bFGF (in words)” value ([2]; listed as D-3) of the same compound?
Answer: Its value is “the most active of the disaccharides”.

Question: And the “Mitogenic activity: relative concentration (wt/vol.) required to incorporate 2 × 10^4 cpm 3H-thymidine into F32 cell DNA” value [2]?
Answer: The value was 26.0.

Question: Which results are given for `CO[C@H]1O[C@H](CO)[C@@H](O[C@@H]2O[C@@H](C(=O)O)[C@@H](O)[C@H](O)[C@H]2O)[C@H](O)[C@H]1NS(=O)(=O)O` [Di-2, α-L-IdoA-(1→4)-α-D-GlcNSO3 -1→OMe]?
Answer: binding to bFGF/FGF (in words) (bFGF [1]): affinity less than that of SOS; mitogenic activity with bFGF (in words) [2]: intermediate mitogenic activity; also recorded: higher than expected mitogenic activity; Mitogenic activity: relative concentration (wt/vol.) required to incorporate 2 × 10^4 cpm 3H-thymidine into F32 cell DNA [2]: 69.5 ± 9.6

Question: With `O=S(=O)(O)OC[C@H]1O[C@@](COS(=O)(=O)O)(O[C@H]2O[C@H](COS(=O)(=O)O)[C@@H](OS(=O)(=O)O)[C@H](OS(=O)(=O)O)[C@H]2OS(=O)(=O)O)[C@@H](OS(=O)(=O)O)[C@@H]1OS(=O)(=O)O` [SOS, sucrose octasulfate, reference compound] as the compound, how does the “binding to aFGF (in words)” value (aFGF) read?
Answer: Its value is “bind”.

Question: And the IC50 (bFGF [1])?
Answer: The IC50 was 94.6 µM.

Question: And the “binding to bFGF/FGF (in words)” value (bFGF [1])?
Answer: Its value is “bind”.

Question: And the “mitogenic activity with bFGF (in words)” value [2]?
Answer: The value was “minimal biological activity”.

Question: And the “Mitogenic activity: relative concentration (wt/vol.) required to incorporate 2 × 10^4 cpm 3H-thymidine into F32 cell DNA” value [2]?
Answer: Its value is 1380.8 ± 30.6.
